Experimental data: the supplement of paper PMC10307832

Tests used:
Assay in all cases: relative viability (nuclei count vs DMSO), 5 days (fraction); higher = more cells survive
[1] = compound: C#Cc1cccc(Nc2ncnc3cc(OC)c(OCCCCCCC(=O)NO)cc23)c1 [CUDC-101] + Nc1ncn([C@H]2C[C@H](O)[C@@H](CO)O2)c(=O)n1 [Decitabine] (partner 2 µM)
In short: (§1)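 Values are medians from duplicate plates. Each reflects relative viability, defined as the nuclei count of treated wells over that of vehicle wells. Lung cancer cell lines in 1536-well plates were pin-tool dosed one day after seeding with one drug alone or with a fixed anchor-drug dose plus five library-drug doses (not always all listed) in √10 steps, then fixed, stained and imaged at 4× after 5 days.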

[2] = compound: COc1cc(N2CCC(N3CCN(C)CC3)CC2)ccc1Nc1ncc(Cl)c(Nc2ccccc2S(=O)(=O)C(C)C)n1 [NVP-TAE684] + NC(=O)Nc1cc(-c2cccc(F)c2)sc1C(=O)N[C@H]1CCCNC1 [AZD7762] (partner 0.2 µM)
In short: as §1

[3] = compound: COc1cc(N2CCC(N3CCN(C)CC3)CC2)ccc1Nc1ncc(Cl)c(Nc2ccccc2S(=O)(=O)C(C)C)n1 [NVP-TAE684] + CC(=O)Nc1cccc(-n2c(=O)n(C3CC3)c(=O)c3c(Nc4ccc(I)cc4F)n(C)c(=O)c(C)c32)c1 [Trametinib] (partner 0.02 µM)
In short: as §1

[4] = compound: C1=CC=C2C(=C1)N=C(S2)C(C#N)C3=NC(=NC=C3)NCCC4=CN=CC=C4 + NC(=O)Nc1cc(-c2cccc(F)c2)sc1C(=O)N[C@H]1CCCNC1 [AZD7762] (partner 0.2 µM)
In short: as §1

[5] = compound: COc1cc(N2CCC(N3CCN(C)CC3)CC2)ccc1Nc1ncc(Cl)c(Nc2ccccc2S(=O)(=O)C(C)C)n1 [NVP-TAE684] + O=C(CCCCCCC(=O)Nc1ccccc1)NO [Vorinostat] (partner 1 µM)
In short: as §1

Cell Line	relative viability ([1]; first compound 0.01 µM)	relative viability ([1]; first compound 0.03162 µM)	relative viability ([1]; first compound 0.1 µM)	relative viability ([1]; first compound 0.3162 µM)	relative viability ([1]; first compound 1 µM)	relative viability ([2]; first compound 0.2 µM)	relative viability ([2]; first compound 0.6325 µM)	relative viability ([2]; first compound 2 µM)	relative viability ([3]; first compound 0.2 µM)	relative viability ([3]; first compound 0.6325 µM)	relative viability ([3]; first compound 2 µM)	relative viability ([4]; first compound 0.005 µM)	relative viability ([4]; first compound 0.01581 µM)	relative viability ([4]; first compound 0.05 µM)	relative viability ([4]; first compound 0.1581 µM)	relative viability ([4]; first compound 0.5 µM)	relative viability ([5]; first compound 0.2 µM)	relative viability ([5]; first compound 0.6325 µM)	relative viability ([5]; first compound 2 µM)
NCI-H322M	0.65	0.686	0.625	0.651	0.517	0.553	0.599	0.453	0.589	0.447	0.294	0.522	0.522	0.436	0.564	0.56	0.858	0.811	0.565
NCI-H358	0.209	0.204	0.174	0.206	0.112	0.55	0.298	0.225	0.147	0.107	0.0912	0.579	0.492	–	0.592	0.496	0.697	0.608	0.0861
NCI-H441	0.303	0.305	0.262	0.242	0.236	1.12	1.04	0.598	0.359	0.333	0.263	1.02	1.14	1.28	1.02	0.986	0.972	0.688	0.56
NCI-H460	0.522	0.459	0.423	0.533	0.433	0.767	0.568	0.591	0.173	0.16	0.0273	0.508	0.641	0.672	0.69	0.43	–	0.806	0.106
NCI-H522	0.58	0.622	0.761	0.616	0.677	0.91	0.938	0.744	0.652	0.776	0.738	0.885	0.654	0.768	0.787	0.839	0.78	0.855	0.764
NCI-H596	0.902	1.03	0.988	1.18	1.02	1.03	0.988	0.839	0.712	0.581	0.688	0.985	1.31	1	1.2	1.09	0.565	0.578	0.647
NCI-H647	0.267	0.326	0.308	0.335	0.24	0.41	0.408	0.201	0.483	0.489	0.216	0.27	0.281	0.513	0.512	0.372	0.792	0.6	0.174
NCI-H650	0.359	0.366	0.323	0.286	0.264	1.03	0.848	0.853	1.08	0.951	0.726	1.12	1.07	0.891	1.23	1.09	0.428	0.298	0.406
NCI-H727	1.19	0.906	0.944	0.989	0.695	0.588	0.58	0.344	0.406	0.349	0.308	0.788	0.533	0.667	0.626	0.618	1.09	1.25	0.869
NCI-H838	0.45	0.516	0.49	0.484	0.369	–	0.857	0.853	0.566	0.407	0.202	0.889	0.891	0.907	0.92	0.836	0.76	0.692	0.334
NCI-H1355	0.359	0.313	0.358	0.355	0.313	0.862	0.691	0.479	0.399	0.398	0.3	0.702	0.698	0.675	0.967	0.559	0.561	0.605	0.327
NCI-H1395	0.794	0.756	0.773	0.709	0.66	0.417	0.367	0.397	1.09	1.15	0.944	0.392	–	0.379	0.428	0.389	0.71	0.554	0.711
NCI-H1437	0.556	0.537	0.553	0.533	0.498	1.21	1.09	1.07	0.523	0.444	0.225	1.12	1.12	1.11	1.13	0.968	0.832	0.899	0.426
NCI-H1648	0.548	0.519	0.439	0.451	0.324	0.677	0.56	0.399	0.395	0.433	0.284	–	0.689	–	0.569	0.604	0.27	0.541	0.181
NCI-H1651	0.671	0.645	0.643	0.594	0.515	0.423	0.48	0.401	–	0.86	0.771	0.428	0.463	0.533	0.509	0.471	0.635	0.537	0.508
NCI-H1666	0.769	0.734	0.693	0.752	0.61	0.898	0.889	0.652	0.818	0.836	0.714	0.956	0.764	0.817	0.805	0.803	0.99	0.964	0.877
